According to patent publication US20260000655A1, “PHARMACEUTICAL COMPOSITION FOR USE IN PREVENTION OR TREATMENT OF LIFESTYLE-RELATED DISEASE” (priority 2022, published 2026):

Legend:
[1] = system: high-fat diet-induced obesity model mice; test: Organ weight in mouse; type: in vivo; details: HPH-15 100 mg/kg orally once a day 28 days; compared to olive oil
Description: The changes in organ weights when HPH-15 was administered were examined.
High-fat diet-induced obesity model mice were prepared in the same manner as in Example 7. Then, HPH-15 (10 mg/kg or 100 mg/kg, […]) dissolved in olive oil or metformin (300 mg/kg, […]) was orally administered once a day for 28 days. Olive oil alone was administered as a control. After 28 days of administration of each, the liver, muscle, subcutaneous fat, and epididymis of the high-fat diet-induced obesity model mice were excised and weighed.

[2] = system: high-fat diet-induced obesity model mice; test: Blood test value in mouse; type: in vivo; details: HPH-15 10 or 100 mg/kg orally 28 days
Description: High-fat diet-induced obesity model mice were prepared in the same manner as in Example 7. Then, […] of olive oil (Kenei Pharmaceutical Co., Ltd.) as a solvent, HPH-15 (10 mg/kg or 100 mg/kg, […]) dissolved in olive oil, or metformin (300 mg/kg, […]) was orally administered once a day for 28 days. After administration of each for 28 days, the blood from the high-fat diet-induced obesity model mice was examined at the Kumamoto Mouse Clinic (Kumamoto National University Corp.).

[3] = Body weight during administration in mouse; type: in vivo; details: HPH-15 10 mg/kg or 100 mg/kg orally once a day for 28 days; high-fat diet
Description: Four-week-old […] mice (CLEA Japan, Inc.) were fed a high-fat diet HFD (CLEA Japan, Inc.) for two months to prepare high-fat diet-induced obesity model mice. Then, HPH-15 (10 mg/kg or 100 mg/kg, […]) dissolved in olive oil (Kenei Pharmaceutical Co., Ltd.) or metformin (300 mg/kg, […]) was orally administered once a day for 28 days. Olive oil alone was administered as a control. Body weight, random blood glucose levels, and fasting blood glucose levels were measured every 7 days using a blood glucose meter Glutest Aqua (Sanwa Kagaku Kenkyusho Co., Ltd.). Fasting blood glucose levels were measured after 12-hour fasting. Note that, during the drug administration period, the mice were fed the high-fat diet HFD. The results of random blood glucose levels (mg/dl) are shown in FIG. 7A, and the results of fasting blood glucose levels (mg/dl) are shown in FIG. 7B.

[4] = system: liver cell model HepG2 cells; test: Cytotoxicity (MTT reagent); type: cell-based, human; details: HPH-15 1 μM, 10 μM or 50 μM, 24 hours
Description: (§1) It was examined whether using HPH-15 as a drug caused any cytotoxicity.
(§2) The myotube cell model L6-GLUT4myc, the liver cell model HepG2 cells, and the adipocyte model 3T3-L1 used in Example 1 were each seeded onto a 24-well plate (1×10^5 cells/well, […] of culture liquid) and cultured overnight. Then, a DMSO solution (1%) containing HPH-15 (final concentration: 1 μM, 10 μM or 50 μM) was added to the medium, and the cells were further cultured for 24 hours. As a control, only DMSO solution (1%) was added, and the cells were cultured for 24 hours in the same manner. Next, […] of MTT reagent (3-(4,5-dimethyl-2-thiazolyl)-2,5-diphenyl-2H-tetrazolium bromide: 1.1 mg/mL: Dojindo Laboratories) was added to each well, and the cells were further cultured for 4 hours. After collecting the precipitated crystals, the supernatant was removed and DMSO ([…]) was added to completely dissolve the crystals. Cytotoxicity was evaluated by measuring the absorbance (550 nm) of the solution and determining the number of viable cells.

[5] = system: high-fat diet-induced obesity model mice; test: Pyruvic acid loading test in mouse; type: in vivo; details: HPH-15 10 mg/kg or 100 mg/kg orally, 28 days; pyruvic acid 2 g/kg intraperitoneally; compared to olive oil
Description: The effect of HPH-15 on the changes in blood glucose levels in the presence of pyruvic acid involving in gluconeogenesis was examined using mice.
High-fat diet-induced obesity model mice were prepared in the same manner as in Example 7. Then, HPH-15 (10 mg/kg or 100 mg/kg, […]) dissolved in olive oil or metformin (300 mg/kg, […]) was orally administered once a day for 28 days. Olive oil alone was administered as a control. After 28 days of administration of each, pyruvic acid was intraperitoneally administered (2 g/kg) to the high-fat diet-induced obesity model mice, and blood glucose levels (mg/dl) were measured at 0, 15, 30, 60, 90, and 120 minutes after administration using a blood glucose meter Glutest Aqua (Sanwa Kagaku Kenkyusho Co., Ltd.).

[6] = system: liver cell model HepG2 cells; test: Neutral fat accumulation (Oil Red O) in presence of glucose; type: cell-based, human; details: HPH-15 50 μM vs metformin 2 mM, glucose 100 mM, 24 hours
Description: Many patients with type 2 diabetes have fat accumulation in the visceral organs.
The liver cell model HepG2 cells used in Example 1 were seeded onto a 24-well plate (1×10^5 cells/well, […] of culture liquid) and cultured overnight. Then, a DMSO solution (1%) containing HPH-15 (final concentration: 50 μM) or metformin (final concentration: 2 mM) was added to the medium, and the cells were further cultured for 24 hours. As a control, only DMSO solution (1%) was added, and the cells were cultured for 24 hours in the same manner. Next, glucose (100 mM) was added to the medium, and the cells were further cultured for 24 hours. Then, the cells were fixed using 4% paraformaldehyde for 10 minutes. The fixed cells were added with an Oil Red O staining solution (Nacalai Tesque, Inc.) and shaken for 15 minutes. After washing with a 60% aqueous isopropanol solution, cell images were observed using a microscope. Further, the amount of neutral fat in the cells was determined by dissolving the stained cells in 100% isopropanol and measuring the absorbance (492 nm).

[7] = system: myotube cell model L6-GLUT4myc; test: Cytotoxicity (MTT reagent); type: cell-based, rat; details: HPH-15 1 μM, 10 μM or 50 μM, 24 hours
Description: as §1, §2

[8] = compared with metformin 300 mg/kg

CC(C)(C)SCCNC(=S)c1cccc(C(=S)NCCSC(C)(C)C)n1 [HPH-15]
reduction of subcutaneous fat weight [1]: approximately 50% | toxicity (blood test) [2]: No toxicity was observed | other blood test items ([2]; compared to olive oil): no differences were observed | ALT value (blood test) [2, 8]: lower than that of metformin | AST value (blood test) [2, 8]: significantly lower than those of metformin | LD value (blood test) [2, 8]: significantly lower than those of metformin | changes in body weight during the test period [3]: no significant differences were observed | cytotoxicity (number of viable cells) [4]: no cytotoxicity was confirmed | blood glucose levels after pyruvic acid loading [5]: significantly lowered | neutral fat accumulation [6]: had an inhibitory effect on neutral fat accumulation in the presence of high glucose in the same manner as metformin | cytotoxicity (number of viable cells) [7]: no cytotoxicity was confirmed
